Test results as given in paper PMC12040169 (PLOS Biology, 2025).

assay: in vitro; conditions: human, hela cells, % viability

Compound	viability at 28.5 h, 10 µM
COc1ccc(N(C)C(=O)N[C@@H]2CC[C@@]3(c4ccc(OC)c(OC)c4)CCN(C)[C@H]3C2)cc1 [CBK045653T]	112%
COc1ccc(-c2csc(CCNC(=O)Cc3c[nH]c(=O)[nH]c3=O)n2)cc1 [CBK285670]	92.4%
CS(=O)(=O)N(CC(=O)NCc1ccccn1)c1cc(Cl)cc(Cl)c1 [CBK266459]	106%
NC(=O)C1(N2CCCCC2)CCN(C(=O)CCCC(=O)O)CC1 [CBK286575]	84.2%
COc1ccccc1C(=O)N1CCC[C@@H](N)[C@@H]1c1ccccc1F [CBK283458]	86%
CC(=O)Nc1cccc(-c2ccc(Nc3cccnc3)nc2)c1 [CBK037703]	96.7%
CCCc1ccc(OCC(=O)Nc2ccccc2C(N)=O)cc1 [CBK263103]	88.7%
CN(C)S(=O)(=O)Nc1ccccc1C(N)=O [CBK264382]	111%
Cc1noc(C)c1C(=O)Nc1ccc(N2CCOCC2)c2nonc12 [CBK268125]	94.7%
Cc1cccc(-c2ccc(CC3(C(=O)NC(C)C)CCN(C(=O)C4CC4)CC3)cc2)c1 [CBK285757]	93.3%
Cn1c(=O)c2c(nc(CN3CCOCC3)n2CCc2ccccc2)n(C)c1=O [CBK269264]	89.3%
CCc1nc(CNc2ccc(NC(C)=O)cc2Cl)cs1 [CBK305103]	102%
CCC(C)c1ccc(NC(C)C(=O)Nc2ccc3[nH]c(=O)[nH]c3c2)cc1 (centres unmarked) [CBK296694]	92.1%
c1ccc2sc(-n3cncn3)nc2c1 [CBK027022]	92.2%
COc1ccc2[nH]c3c(c2c1)CCOC31CCN(C(=O)CC(C)CC(=O)O)CC1 (centres unmarked) [CBK047197]	100%
Cc1cc(NCc2ccc(C(C)C)cc2)c2ccccc2n1 [CBK122786]	91.7%
CC(C)(C)C1CCC(OCC(O)CN2CCN(CCO)CC2)CC1 (centres unmarked) [CBK278263C]	89.8%
Cc1cc2cn([C@H]3C[C@@H](O)[C@@H](CO)O3)c(=O)nc2o1 [CBK201287]	96%

Compound	viability at 28.5 h, 10 µM
CN(CCc1ccccc1)Cc1nc2ccccc2c(=O)[nH]1 [CBK283204]	98.7%
CC(C)(CN1CCCCC1)NC(=O)CCOc1cccc(F)c1 [CBK282060]	87.2%
CC(C)[C@H](CO)NC(=O)c1cnc(-c2ccc(Cl)cc2)c(-c2ccco2)c1 [CBK036658]	108%
CNC(=O)c1ccc(-c2ccc(N3CCOCC3)cc2)nc1NCC1CC1 [CBK106305]	102%
Cc1nn(CC(=O)N2CCC(C)CC2)c(=O)c2cc3occc3n12 [CBK283654]	89.8%
Cc1cc(C)c(NC(=O)CSCC(=O)Nc2ccc3ccccc3c2)c(C)c1 [CBK264856]	100%
CN(Cc1nccn1C)c1nccc(N2CCN[C@H]3CS(=O)(=O)C[C@H]32)n1 [CBK307394]	84.8%
CC1CCCN(c2ccc(NS(=O)(=O)c3ccc4[nH]c(=O)[nH]c(=O)c4c3)cc2)C1 (centres unmarked) [CBK286376]	97.5%
O=C(O)C1C2C=CC3(CN(c4ccccc4)C(=O)C13)O2 (centres unmarked) [CBK286992]	87.4%
Nc1nc2ccccc2n1/N=C/c1ccc([N+](=O)[O-])cc1 [CBK262239]	88%
CCc1nnc(N/N=C/c2cccs2)n1N [CBK026233C]	97.9%
CSCCN1CCC(C(=O)c2ccc(F)cc2)CC1 [CBK149145]	89.4%
COc1cccc(CN2CCN(C(=O)c3ccco3)CC2)c1OC [CBK074380]	87.4%
CN(C)CCNC(=O)C1CCN(c2nc3c(-c4ccccc4F)csc3c(=O)[nH]2)CC1 [CBK215437]	85.1%
C[C@@H](Nc1nc(-c2ccco2)cnc1N)c1ccccc1 [CBK063737]	108%
Cc1cccc(-c2noc(C)c2C(=O)NCCn2ccnc2C)c1 [CBK282633]	107%
O=C(CCc1nc2ccccc2s1)Nc1nc2ccccc2[nH]1 [CBK287988]	114%
